Columns and labels:
Format in all cases: cell-based
COR-L105 = assay: CellTiter-Glo proliferation assay, COR-L105; conditions: Homo sapiens, COR-L105, 120 h, COR-L105, 5 days; for Emax: read-out: COR-L105 Span (max)
Experimental: (§1) The BCL-xL degrader compounds were tested against two endogenous cancer cell lines: • COR-L105: ECACC No. 92031918 cultured in RPMI-1640+10% FBS • NCI-H1650: (ATCC No. CRL-5883 cultured in RPMI-1640+10% FBS
(§2) The ability of the BCL-xL degrader low molecular weight compounds to inhibit cell proliferation and survival was assessed using the Promega CellTiter-Glo® proliferation assay.
(§3) Cell lines were cultured in media that is optimal for their growth at 5% CO2, 37° C. in a tissue culture incubator. Prior to seeding for the proliferation assay, the cells were split at least 2 days before the assay to ensure optimal growth density. On the day of seeding, adherent cells were lifted off tissue culture flasks using 0.25% trypsin. Cell viability and cell density were determined using a cell counter (Vi-Cell XR Cell Viability Analyzer, Beckman Coulter). Cells with higher than 85% viability were seeded for the assay.
(§4) The COR-105 cell line was seeded in white, clear bottom 384-well TC treated plates (Corning cat. #3765). Cells were seeded at a density of 1,000 cells per well in 45 μL of standard growth media. Plates were incubated at 5% CO2, 37° C. overnight in a tissue culture incubator. The NCI-H1650 cell line was seeded in black, clear round bottom 384-well ultra-low attachment spheroid microplates (Corning cat. #3830). Cells were seeded at a density of 3,000 cells per well in 45 uL of standard growth media. Plates were spun in a centrifuge for 5 minutes and 1,000 RPM. Plates were incubated at 5% CO2, 37° C. for 72 hours in a tissue culture incubator.
(§5) On the day of dosing, BCL-xL degrader low molecular weight compounds were prepared at 1 OX in standard growth media. The prepared drug treatments were then added to the cells resulting in final concentrations of 0.508 nM-10 μM and a final volume of 50 μL per well. Each drug concentration was tested in quadruplets. Plates were incubated at 5% CO2, 37° C. for 5 days in a tissue culture incubator.
(§6) For COR-L105 plates, cell viability was assessed through the addition of 25 μL of CellTiter Glo® (Promega, cat #G7573), a reagent which lyses cells and measures total adenosine triphosphate (ATP) content. Plates were incubated at room temperature for 10 minutes to stabilize luminescent signals prior to reading with a luminescence reader (EnVision Multilabel Plate Reader, PerkinElmer). For NCI-H1650 plates, cell viability was assessed through the addition of 40 μL of CellTiter Glo® 3D Cell Viability Assay substrate (Promega, cat #G9681), a reagent which lyses cells and measures total adenosine triphosphate (ATP) content. Wells were mixed thoroughly and plates were incubated at room temperature for 30 minutes to stabilize luminescent signals prior to reading using a luminescence reader (EnVision Multilabel Plate Reader, PerkinElmer).
(§7) To evaluate the effect of the drug treatments, luminescent counts from wells containing untreated cells (100% viability) were used to normalize treated samples. A variable slope model was applied to fit a nonlinear regression curve to the data in GraphPad PRISM version 7.02 software. IC50 and Amax values were extrapolated from the resultant curves. The concentrations of treatment required to inhibit 50% of cell growth or survival (IC50) were calculated with representative IC50 values of the cell lines tested summarized in Table 11.

NCI-H1650 = assay: CellTiter-Glo 3D proliferation assay, NCI-H1650 spheroids; conditions: Homo sapiens, NCI-H1650, 120 h, 5 days; for Emax: read-out: NCI-H1650 Span (Amax)
Experimental: as §1, §2, §3, §4, §5, §6, §7

MOLT-4 cells = assay: MOLT-4 cell viability, CTG assay; conditions: Homo sapiens, MOLT-4, 48 h
Procedure, shortened: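 Cells grown in RPMI 1640 with 10% FBS at 37° C, 5% CO2, then exposed to compounds for 48 h (11-point 5-fold dilution, triplicates). ATP measured by CellTiter-Glo luminescence; IC50 from four-parameter fit versus control, mean of ≥2 independent experiments.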

Bcl-xL = target: T1, Bcl-xL (Homo sapiens, UniProt Q07817); assay: HCT116 Bcl-xL degradation, capillary-based immunoassay (WES); conditions: HCT116, 24 h, 9-point serial dilution
T1 construct: Measured levels of Bcl-xL protein of HCT116 cells treated with the tested compounds; host or cells: HCT116
Procedure, shortened: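 HCT116 cells treated 24 h with compound at 10/100 nM and/or 9-point dilution (quadruplicates), then lysed. Bcl-xL measured by capillary WES immunoassay, normalized to cofilin and expressed as % of untreated cells. DC50 from four-parameter curve fit.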

[1] = test system: EBC-1 lung cancer cell line; assay: EBC-1 cell proliferation, CellTiter-Glo assay; conditions: Homo sapiens, 120 h; Ebc-1 cell viability, CTG assay, 5 days of treatment; read-out: CTG 5 day Ebc1 GI50
Procedure, shortened: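 EBC-1 cells seeded at 1000 per well overnight, then exposed to 10-point dilutions (0.508 nM–10 μM final) for 5 days at 37 °C, in triplicate. ATP luminescence by CellTiter-Glo, normalised to untreated wells; GI50 from four-parameter logistic fit, runs valid only with at least one doubling.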

HiBiT-tagged BCL-xL = target: T2, HiBiT-tagged BCL-xL (Homo sapiens, UniProt Q07817); assay: NCI-H1650 BCL-xL protein levels, Nano-Glo HiBiT Lytic Detection; conditions: NCI-H1650 expressing HiBiT-tagged BCL-xL, overnight incubation, read-out: Bcl-xl HIBIT NCIH1650 DC50
T2 construct: expressed in transfected cells; host or cells: NCI-H1650 (ATCC No. CRL-5883), engineered HiBiT cell line
Procedure, shortened: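 NCI-H1650 cells expressing HiBiT-tagged BCL-xL (5000/well) were treated overnight at 37° C with 10 concentrations, final 0.508 nM-10 μM, in triplicate. Remaining BCL-xL measured by Nano-Glo HiBiT lytic luminescence, normalized to untreated cells; 50% values by four-parameter logistic fit.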

T1 sequence (Q07817 whole entry): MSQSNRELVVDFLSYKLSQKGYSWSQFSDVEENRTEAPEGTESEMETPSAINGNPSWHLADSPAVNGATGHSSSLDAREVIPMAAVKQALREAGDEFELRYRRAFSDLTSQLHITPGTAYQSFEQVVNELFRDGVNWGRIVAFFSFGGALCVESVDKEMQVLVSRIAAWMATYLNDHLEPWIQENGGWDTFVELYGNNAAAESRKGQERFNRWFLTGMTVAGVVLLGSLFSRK
T2 sequence (Q07817 whole entry): as above

SMILES	IC50 (COR-L105)	Emax (COR-L105)	IC50 (NCI-H1650)	Emax (NCI-H1650)	IC50 (MOLT-4 cells)	DC50 (Bcl-xL)	GI50 [1]	DC50 (HiBiT-tagged BCL-xL)
Cc1ncsc1-c1ccc(CNC(=O)[C@@H]2C[C@@H](O)CN2C(=O)[C@@H](NC(=O)C2(F)CC2)C(C)(C)C)c(OCCCCCCCCCCCCN2CCN(CC#Cc3ccc(OCCCc4sc(N5CCCc6c5nnc(Nc5nc7ccccc7s5)c6C)nc4C(=O)O)c(F)c3)CC2)c1 [Example 55, 2-(3-(benzo[d]thiazol-2-ylamino)-4-methyl-6,7-dihydropyrido [2,3-c]pyridazin-8(5H)-yl)-5-(3-(2-fluoro-4-(3-(4-(12-(2-(((2S,4R)-1-((S)-2-(1-fluorocyclopropane-1-carboxamido)-3,3-dimethylbutanoyl)-4-hydroxypyrrolidine-2-carboxamido)methyl)-5-(4-methylthiazol-5-yl)phenoxy)dodecyl)piperazin-1-yl)prop-1-yn-1-yl)phenoxy)propyl)thiazole-4-carboxylic acid]	1160 nM	81%	302 nM	78.8%				
Cc1ncsc1-c1ccc(CNC(=O)[C@@H]2C[C@@H](O)CN2C(=O)[C@@H](NC(=O)C2(F)CC2)C(C)(C)C)c(OCCCCCCCCN2CCN(CC#Cc3ccc(OCCCc4sc(N5CCCc6c5nnc(Nc5nc7ccccc7s5)c6C)nc4C(=O)O)c(F)c3)CC2)c1 [Example 56, 2-(3-(benzo[d]thiazol-2-ylamino)-4-methyl-6,7-dihydropyrido [2,3-c]pyridazin-8(5H)-yl)-5-(3-(2-fluoro-4-(3-(4-(8-(2-(((2S,4R)-1-((S)-2-(1-fluorocyclopropane-1-carboxamido)-3,3-dimethylbutanoyl)-4-hydroxypyrrolidine-2-carboxamido)methyl)-5-(4-methylthiazol-5-yl)phenoxy)octyl)piperazin-1-yl)prop-1-yn-1-yl)phenoxy)propyl)thiazole-4-carboxylic acid]	473 nM	82%	110 nM	84.2%				
Cc1ncsc1-c1ccc(CNC(=O)[C@@H]2C[C@@H](O)CN2C(=O)[C@@H](NC(=O)C2(F)CC2)C(C)(C)C)c(OCc2ccc(CN3CCN(CC#Cc4ccc(OCCCc5sc(N6CCCc7c6nnc(Nc6nc8ccccc8s6)c7C)nc5C(=O)O)c(F)c4)CC3)cc2)c1 [Example 58, 2-(3-(benzo[d]thiazol-2-ylamino)-4-methyl-6,7-dihydropyrido [2,3-c]pyridazin-8(5H)-yl)-5-(3-(2-fluoro-4-(3-(4-(4-((2-(((2S,4R)-1-((S)-2-(1-fluorocyclopropane-1-carboxamido)-3,3-dimethylbutanoyl)-4-hydroxypyrrolidine-2-carboxamido)methyl)-5-(4-methylthiazol-5-yl)phenoxy)methyl)benzyl)piperazin-1-yl)prop-1-yn-1-yl)phenoxy)propyl)thiazole-4-carboxylic acid]	481 nM	85.5%	188 nM	98.2%				
Cc1ncsc1-c1ccc(CNC(=O)[C@@H]2C[C@@H](O)CN2C(=O)[C@@H](NC(=O)C2(F)CC2)C(C)(C)C)c(OCCN(C)CC(=O)N2CCN(CC#Cc3ccc(OCCCc4sc(N5CCCc6c5nnc(Nc5nc7ccccc7s5)c6C)nc4C(=O)O)c(F)c3)CC2)c1 [Example 59, 2-(3-(benzo[d]thiazol-2-ylamino)-4-methyl-6,7-dihydropyrido [2,3-c]pyridazin-8(5H)-yl)-5-(3-(2-fluoro-4-(3-(4-(N-(2-(2-(((2S,4R)-1-((S)-2-(1-fluorocyclopropane-1-carboxamido)-3,3-dimethylbutanoyl)-4-hydroxypyrrolidine-2-carboxamido)methyl)-5-(4-methylthiazol-5-yl)phenoxy)ethyl)-N-methylglycyl)piperazin-1-yl)prop-1-yn-1-yl)phenoxy)propyl)thiazole-4-carboxylic acid]	2430 nM	105%	119 nM	77.9%				
Cc1ncsc1-c1ccc([C@H](C)NC(=O)[C@@H]2C[C@@H](O)CN2C(=O)[C@@H](NC(=O)CCCCCCCCCCCCCN(C)CCOC23CC4(C)CC(C)(CC(Cn5ncc(-c6ccc(N7CCCc8c7nnc(Nc7nc9ccccc9s7)c8C)nc6C(N)=O)c5C)(C4)C2)C3)C(C)(C)C)cc1 [Example 154, 6-[3-(1,3-benzothiazol-2-ylamino)-4-methyl-6,7-dihydro-5H-pyrido[2,3-c]pyridazin-8-yl]-3-[1-[[3-[2-[[14-[[(1S)-1-[(2S,4R)-4-hydroxy-2-[[(1S)-1-[4-(4-methylthiazol-5-yl)phenyl]ethyl]carbamoyl]pyrrolidine-1-carbonyl]-2,2-dimethyl-propyl]amino]-14-oxo-tetradecyl]-methyl-amino]ethoxy]-5,7-dimethyl-1-adamantyl]methyl]-5-methyl-pyrazol-4-yl]pyridine-2-carboxamide]					6.59 nM	10.3 nM	222 nM	> 1670 nM
CNC(=O)c1nc(N2CCCc3c2nnc(Nc2nc4ccccc4s2)c3C)ccc1-c1cnn(CC23CC4(C)CC(C)(C2)CC(OCCN(C)CCCCCCCCCCCCCC(=O)N[C@H](C(=O)N2C[C@H](O)C[C@H]2C(=O)N[C@@H](C)c2ccc(-c5scnc5C)cc2)C(C)(C)C)(C4)C3)c1C [Example 156, 6-[3-(1,3-benzothiazol-2-ylamino)-4-methyl-6,7-dihydro-5H-pyrido[2,3-c]pyridazin-8-yl]-3-[1-[[3-[2-[[14-[[(1S)-1-[(2S,4R)-4-hydroxy-2-[[(1S)-1-[4-(4-methylthiazol-5-yl)phenyl]ethyl]carbamoyl]pyrrolidine-1-carbonyl]-2,2-dimethyl-propyl]amino]-14-oxo-tetradecyl]-methyl-amino]ethoxy]-5,7-dimethyl-1-adamantyl]methyl]-5-methyl-pyrazol-4-yl]-N-methyl-pyridine-2-carboxamide]					6.48 nM	14.5 nM	27 nM	228 nM

From patent US20240376094A2, “SELECTIVE BCL-XL PROTAC COMPOUNDS AND METHODS OF USE” (Les Laboratoires Servier, priority 2021, published 2024)
